This is an account of results in patent US5001142A, “1-substituted-2-(3-amino-1-propynyl)pyrrolidine derivatives” (American Cyanamid Company, priority 1989, dated 1991).

For assay [1], the target named is muscarinic cholinergic receptor. Briefly: [^3 H] Quinuclidinyl Benzilate (^3 H-QNB) Binding Assay. The following applies: rat cerebral cortex, ^3 H-QNB 0.25 nM, 25° C., 120 minutes, pH 7.4.
For assay [2] the target is unchanged. Description: [^3 H]-Cis-methyldioxolane (^3 H-CD) Binding Assay (High Affinity). The following applies: rat cerebral cortex, ^3 H-CD 1.0 nM, 25° C., 120 minutes, pH 7.4, high affinity agonist conformation.
For assay [3], the system named is muscarinic sites. Conditions: cited from earlier work.
Assay [4] concerns presynaptic cholinergic. The following applies: should disinhibit the release of endogenous acetylcholine; cited from earlier work.
Assay [5] has as its system postsynaptic cholinergic. The following applies: should mimic the effects of acetylcholine; cited from earlier work.
Assay [6] deals with aged monkey. Conditions: aged monkeys; cited from earlier work.
Assay [7] relates to SDAT patients. The following applies: compared to the anticholinesterase inhibitor physostigmine; cited from earlier work.

Counter-ions that a name gives are not always drawn.

The term IC50 denotes the concentration at which inhibition is half-maximal. With `O=C(N1CCC[C@H]1C#CCN1CCCC1)C(F)(F)F` [(S)-2-[3-(1-Pyrrolidinyl)-1-propynyl]-1-(trifluoroacetyl)pyrrolidine], the figures for the IC50 in assay [1] and in assay [2] were 18 µM and 5.47 µM, respectively.
As for `CC(=O)N(C)C(C)C#CCN1CCCC1` (stereo not drawn) [BM-5, N-methyl-N-(1-methyl-4-pyrrolidino-2-butynyl)acetamide], the “antagonist/agonist action at muscarinic sites” value in assay [3] is listed as “antagonist at some muscarinic sites while being an agonist at most others”. For the same compound, the presynaptic cholinergic action result in assay [4] is “presynaptic cholinergic antagonist”. The postsynaptic cholinergic action result in assay [5] was “postsynaptic partial cholinergic agonist”.
Consider `CC(C)(C)OC(=O)N1CCC[C@@H]1C#CCN1CCCC1` [(R)-2-[3-(1-Pyrrolidinyl)-1-propynyl]-1-pyrrolidine-carboxylic acid, 1,1-dimethylethyl ester], for which the 50% inhibitory concentration (IC50) was found to be 6.5 µM in assay [1] and 0.029 µM in assay [2].
For `O=CN1CCC[C@H]1C#CCN1CCCC1` [(S)-2-[3-(1-Pyrrolidinyl)-1-propynyl]-1-pyrrolidinecarboxaldehyde] the same measures were 65 µM and 5.24 µM.
For the compound `O=C(N1CCC[C@@H]1C#CCN1CCCC1)C(F)(F)F` [(R)-2-[3-(1-Pyrrolidinyl)-1-propynyl]-1-(trifluoroacetyl)pyrrolidine, dihydrochloride], the half-maximal inhibitory concentration (IC50) in assay [1] (dihydrochloride) is 43 µM; in assay [2] (dihydrochloride), 8.57 µM.
Consider `CC(C)(C)OC(=O)N1CCC[C@H]1C#CCN1CCCC1` [(S)-2-[3-(1-Pyrrolidinyl)-1-propynyl]1-pyrrolidine-carboxylic acid, 1,1-dimethylethyl ester], for which the IC50 in assay [1] came to 4.2 µM; in assay [2] it was 0.247 µM.
For the compound `CS(=O)(=O)N1CCC[C@H]1C#CCN1CCCC1` [(S)-1-(Methylsulfonyl)-2-[3-(1-pyrrolidinyl]-1-propynyl]pyrrolidine], the results for the IC50 in assay [1] and in assay [2] were 43 µM and 6.78 µM, respectively.
As to `O=C(N1CCC[C@H]1C#CCN1CCCC1)C(F)(F)F` [(S)-2-[3-(1-Pyrrolidinyl)-1-propynyl]1-trifluoroacetyl) pyrrolidine, hydrochloride], the figures for the concentration for half-maximal inhibition (IC50) in assay [1] (hydrochloride) and in assay [2] (hydrochloride) were 16 µM and 3.83 µM, respectively.
`O=C1CCCN1CC#CCN1CCCC1` [oxotremorine]: in assay [6], the improvement in performance entry is recorded as “significant improvement in performance”.
`O=CN1CCC[C@@H]1C#CCN1CCCC1` [(R)-2-(3-(1-Pyrrolidinyl)-1-propynyl]-1-pyrrolidine-carboxaldehyde]: the values for the IC50 in assay [1] and in assay [2] were 34 µM and 3.58 µM, respectively.
Take `CS(=O)(=O)N1CCC[C@H]1C#CCN1CCCC1` [(S)-1-(Methylsulfonyl)-2-[3-(1-pyrrolidinyl)-1propynyl]pyrrolidine, hydrochloride]: the IC50 in assay [1] (hydrochloride) is 47 µM; in assay [2] (hydrochloride) it was 8.08 µM.
For the compound `CC(=O)N1CCC[C@@H]1C#CCN1CCCC1` [(R)-1-Acetyl-2-[3-(1-pyrrolidinyl)-1-propynyl]pyrrolidine], the IC50 was 8.8 µM in assay [1] and 0.78 µM in assay [2].
As for `COC(=O)C1=CCCN(C)C1` [arecoline], the improvement in performance result in assay [6] is given as “significant improvement in performance”. Besides, in assay [7], the “improvement in SDAT patients compared to physostigmine” value is “more-consistent improvement”.
Turning to `O=C(N1CCC[C@@H]1C#CCN1CCCC1)C(F)(F)F` [(R)-2-[3-(1-Pyrrolidinyl)-1-propynyl]-1-(trifluoroacetyl)pyrrolidine], the IC50 in assay [1] amounted to 40 µM; in assay [2] it was 2.58 µM.
`C(#C[C@H]1CCCN1)CN1CCCC1` [(R)-1-[3-(2-Pyrrolidinyl)-2-propynyl]pyrrolidine]: the IC50 came to 3.1 µM in assay [1] and 0.514 µM in assay [2].
Take `C(#C[C@H]1CCCN1)CN1CCCC1` [(R)-1-[3-(2-Pyrrolidinyl)-2-propynyl] pyrrolidine, dihydrochloride]: the figures for the IC50 in assay [1] (dihydrochloride) and in assay [2] (dihydrochloride) were 2.7 µM and 0.742 µM, respectively.
Consider `CC(=O)N1CCC[C@H]1C#CCN1CCCC1` [(S)-1-Acetyl-2-[3-(1-pyrrolidinyl)-1-propynly]-pyrrolidine, hydrochloride], for which the IC50 turned out to be 73 µM in assay [1] (hydrochloride) and 3.26 µM in assay [2] (hydrochloride).
For `O=CN1CCC[C@H]1C#CCN1CCCC1` [(S)-2-[3-(1-Pyrrolidinyl)-1-propynyl]1-pyrrolidine-carboxaldehyde, hydrochloride] the same measures were 88 µM and 11.1 µM.
As to `CS(=O)(=O)N1CCC[C@@H]1C#CCN1CCCC1` [(R)-1-(Methylsulfonyl)-2-[3-(1-pyrrolidinyl)-1-propynyl]pyrrolidine], the figures for the IC50 in assay [1] and in assay [2] were 23 µM and 0.973 µM, respectively.
Take `CC(=O)N1CCC[C@H]1C#CCN1CCCC1` [(S)-1-Acetyl-2-[3-(1-pyrrolidinyl)-1-propynyl]pyrrolidine]: the values for the IC50 in assay [1] and in assay [2] were 76 µM and 2.71 µM, respectively.
Take `CS(=O)(=O)N1CCC[C@@H]1C#CCN1CCCC1` [(R)-1-(Methylsulfonyl)-2-[3-(1-pyrrolidinyl)-1-propynyl]pyrrolidine, hydrochloride]: the IC50 amounted to 25 µM in assay [1] (hydrochloride) and 2.45 µM in assay [2] (hydrochloride).
